{"source": "patent US20230191413A1", "about": "“METHOD AND APPARATUS FOR MEASURING PHASE TRANSITION CHARACTERISTICS OF MACROMOLECULES” (CAMBRIDGE ENTERPRISE LIMITED, priority 2020, published 2023)", "target": "T1, FUS-GFP (FUS^G156E-EGFP) (Homo sapiens, UniProt P35637, G156E)", "T1 sequence (P35637 1-526 G156E)": "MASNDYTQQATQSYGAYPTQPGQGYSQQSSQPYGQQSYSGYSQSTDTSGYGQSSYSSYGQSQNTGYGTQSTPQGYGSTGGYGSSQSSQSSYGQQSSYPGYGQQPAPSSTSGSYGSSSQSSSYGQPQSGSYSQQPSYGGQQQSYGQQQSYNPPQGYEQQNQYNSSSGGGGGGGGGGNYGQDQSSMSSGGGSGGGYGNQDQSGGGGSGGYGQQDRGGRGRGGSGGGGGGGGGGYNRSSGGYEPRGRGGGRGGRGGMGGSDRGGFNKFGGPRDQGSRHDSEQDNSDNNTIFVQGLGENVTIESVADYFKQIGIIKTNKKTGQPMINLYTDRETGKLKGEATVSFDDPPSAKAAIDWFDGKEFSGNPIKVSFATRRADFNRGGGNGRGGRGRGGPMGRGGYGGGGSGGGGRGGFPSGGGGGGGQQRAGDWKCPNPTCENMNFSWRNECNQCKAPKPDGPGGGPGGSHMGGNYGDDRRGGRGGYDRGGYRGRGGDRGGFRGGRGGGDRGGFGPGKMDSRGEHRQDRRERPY", "assay": "Droplet microfluidics phase diagram of FUS-GFP liquid-liquid phase separation as a function of protein and 1,6-hexanediol concentration", "type": "biochemical", "conditions": "micro-droplets, GFP fluorescence puncta; homogeneous phase at higher diol concentrations (FIG. 6, N=322 droplets)", "description": "The method utilises droplet microfluidics to rapidly produce many micro-droplets, each of which can be considered a discrete microenvironment in which to study protein phase separation. By altering the input solution conditions, a broad range of phase-separation environments are produced rapidly in order to map LLPS behaviour over a wide region of chemical space. […] Using the microfluidic platform, the phase boundary between phase-separated and homogeneous FUS solution is determined, as modulated by the small molecule 1,6-hexanediol, which is known to strongly interfere with LLPS behaviour. […]\nAlexa647 dye (10 μM) was mixed with the 1,6-hexanediol solution, to provide a fluorescent marker for the intra-droplet 1,6-hexanediol concentration. […] Samples were collected for three minutes before undergoing fluorescence imaging analysis.\nThe concentration of FUS^G156E-EGFP and 1,6-hexanediol present in each droplet was determined by integration of volume-normalised EGFP (green fluorescent protein) and Alexa647 fluorescence, respectively. Phase separation was observed by the presence of discrete puncta in GFP fluorescence, whereas homogeneous droplet fluorescence indicated the absence of phase separation (FIG. 5). […]"}
{"smiles": "OCCCCCCO", "note": "[1,6-hexanediol]", "values": [{"measurement": "concentration of 1,6-hexanediol at which phase separation of FUS-GFP was observable", "value": "< 1", "unit": "% v/v"}]}
